# From ChEMBL document CHEMBL3885881, “DrugMatrix”
# Species: Rattus norvegicus
# Assay: DrugMatrix - Regimen: Daily Repeat
# Type: toxicity, organism-based, Sprague-Dawley
# Set-up: regimen Daily Repeat, gender Male, age 6-8 weeks
# Conditions: in vivo, po, route oral GAVAGE, vehicle 100 % WATER; for ABSOLUTE BASOPHIL / ABSOLUTE EOSINOPHIL / ABSOLUTE LYMPHOCYTE / ABSOLUTE MONOCYTE / ABSOLUTE SEGMENTED NEUTROPHIL / BASOPHIL / EOSINOPHIL / ERYTHROCYTE COUNT / HEMATOCRIT / HEMOGLOBIN / LEUKOCYTE COUNT / LYMPHOCYTE / MEAN CORPUSCULAR HEMOGLOBIN / MEAN CORPUSCULAR HEMOGLOBIN CONCENTRATION / MEAN CORPUSCULAR VOLUME / MONOCYTE / NEUTROPHIL / NUCLEATED RED BLOOD CELLS / PLATELET COUNT: tissue Blood; for ALANINE AMINOTRANSFERASE / ALBUMIN / ALKALINE PHOSPHATASE / ASPARTATE AMINOTRANSFERASE / BLOOD UREA NITROGEN / CARBON DIOXIDE / CHLORIDE / CHOLESTEROL / CREATINE PHOSPHOKINASE / CREATININE / GLUCOSE / LACTATE DEHYDROGENASE / LIPASE / PHOSPHORUS / POTASSIUM / SODIUM / TOTAL BILIRUBIN / TOTAL PROTEIN / URIC ACID: tissue Plasma
# [1] = 0 mg/kg, 72 h, dose level Control, time 3 day
# [2] = 0 mg/kg, 120 h, dose level Control, time 5 day
# [3] = 25 mg/kg, 72 h, dose level Low, time 3 day
# [4] = 25 mg/kg, 120 h, dose level Low, time 5 day
smiles,measurement,setting,value
CCC1(c2ccccc2)C(=O)NC(=O)NC1=O [PHENOBARBITAL],ABSOLUTE BASOPHIL,[1],0 CELLS/uL
same,ABSOLUTE EOSINOPHIL,[1],32.5 CELLS/uL
same,ABSOLUTE LYMPHOCYTE,[1],9305.83 CELLS/uL
same,ABSOLUTE MONOCYTE,[1],43.83 CELLS/uL
same,ABSOLUTE SEGMENTED NEUTROPHIL,[1],817.83 CELLS/uL
same,BASOPHIL,[1],0%
same,EOSINOPHIL,[1],0.33%
same,ERYTHROCYTE COUNT,[1],5.38 x10E6/uL
same,HEMATOCRIT,[1],33.63%
same,HEMOGLOBIN,[1],13.17 G/DL
same,LEUKOCYTE COUNT,[1],10.2 x10E3/uL
same,LYMPHOCYTE,[1],91.17%
same,MEAN CORPUSCULAR HEMOGLOBIN,[1],24.5 pg
same,MEAN CORPUSCULAR HEMOGLOBIN CONCENTRATION,[1],39.13 G/DL
same,MEAN CORPUSCULAR VOLUME,[1],62.53 fL
same,MONOCYTE,[1],0.5%
same,NEUTROPHIL,[1],8%
same,NUCLEATED RED BLOOD CELLS,[1],0.17 /100WBC
same,PLATELET COUNT,[1],858 x10E3/uL
same,ALANINE AMINOTRANSFERASE,[1],55.67 u/L
same,ALBUMIN,[1],4.07 G/DL
same,ALKALINE PHOSPHATASE,[1],337 u/L
same,ASPARTATE AMINOTRANSFERASE,[1],84 u/L
same,BLOOD UREA NITROGEN,[1],13.17 mg/dL
same,CARBON DIOXIDE,[1],34.17 mmol/L
same,CHLORIDE,[1],99.33 MEQ/L
same,CHOLESTEROL,[1],78.83 mg/dL
same,CREATINE PHOSPHOKINASE,[1],576.83 u/L
same,CREATININE,[1],0.17 mg/dL
same,GLUCOSE,[1],152.67 mg/dL
same,LACTATE DEHYDROGENASE,[1],147.83 u/L
same,LIPASE,[1],9.5 u/L
same,PHOSPHORUS,[1],10.78 mg/dL
same,POTASSIUM,[1],6.34 MEQ/L
same,SODIUM,[1],144.12 MEQ/L
same,TOTAL BILIRUBIN,[1],0.18 mg/dL
same,TOTAL PROTEIN,[1],6.08 G/DL
same,URIC ACID,[1],0.65 mg/dL
same,ABSOLUTE BASOPHIL,[2],0 CELLS/uL
same,ABSOLUTE EOSINOPHIL,[2],31.17 CELLS/uL
same,ABSOLUTE LYMPHOCYTE,[2],7918.33 CELLS/uL
same,ABSOLUTE MONOCYTE,[2],58.33 CELLS/uL
same,ABSOLUTE SEGMENTED NEUTROPHIL,[2],725.5 CELLS/uL
same,BASOPHIL,[2],0%
same,EOSINOPHIL,[2],0.33%
same,ERYTHROCYTE COUNT,[2],5.32 x10E6/uL
same,HEMATOCRIT,[2],33.53%
same,HEMOGLOBIN,[2],13.17 G/DL
same,LEUKOCYTE COUNT,[2],8.73 x10E3/uL
same,LYMPHOCYTE,[2],90.33%
same,MEAN CORPUSCULAR HEMOGLOBIN,[2],24.82 pg
same,MEAN CORPUSCULAR HEMOGLOBIN CONCENTRATION,[2],39.33 G/DL
same,MEAN CORPUSCULAR VOLUME,[2],63.12 fL
same,MONOCYTE,[2],0.67%
same,NEUTROPHIL,[2],8.67%
same,NUCLEATED RED BLOOD CELLS,[2],0 /100WBC
same,PLATELET COUNT,[2],1144.83 x10E3/uL
same,ALANINE AMINOTRANSFERASE,[2],60.5 u/L
same,ALBUMIN,[2],3.97 G/DL
same,ALKALINE PHOSPHATASE,[2],343.17 u/L
same,ASPARTATE AMINOTRANSFERASE,[2],80.83 u/L
same,BLOOD UREA NITROGEN,[2],15 mg/dL
same,CARBON DIOXIDE,[2],31 mmol/L
same,CHLORIDE,[2],99.75 MEQ/L
same,CHOLESTEROL,[2],71.5 mg/dL
same,CREATINE PHOSPHOKINASE,[2],237.17 u/L
same,CREATININE,[2],0.17 mg/dL
same,GLUCOSE,[2],137 mg/dL
same,LACTATE DEHYDROGENASE,[2],146.17 u/L
same,LIPASE,[2],11.5 u/L
same,PHOSPHORUS,[2],10.13 mg/dL
same,POTASSIUM,[2],6 MEQ/L
same,SODIUM,[2],145 MEQ/L
same,TOTAL BILIRUBIN,[2],0.13 mg/dL
same,TOTAL PROTEIN,[2],5.82 G/DL
same,URIC ACID,[2],0.62 mg/dL
same,ABSOLUTE BASOPHIL,[3],0 CELLS/uL
same,ABSOLUTE EOSINOPHIL,[3],0 CELLS/uL
same,ABSOLUTE LYMPHOCYTE,[3],9305.33 CELLS/uL
same,ABSOLUTE MONOCYTE,[3],110 CELLS/uL
same,ABSOLUTE SEGMENTED NEUTROPHIL,[3],784.67 CELLS/uL
same,BASOPHIL,[3],0%
same,EOSINOPHIL,[3],0%
same,ERYTHROCYTE COUNT,[3],5.23 x10E6/uL
same,HEMATOCRIT,[3],33.43%
same,HEMOGLOBIN,[3],13.03 G/DL
same,LEUKOCYTE COUNT,[3],10.2 x10E3/uL
same,LYMPHOCYTE,[3],92.33%
same,MEAN CORPUSCULAR HEMOGLOBIN,[3],24.97 pg
same,MEAN CORPUSCULAR HEMOGLOBIN CONCENTRATION,[3],39 G/DL
same,MEAN CORPUSCULAR VOLUME,[3],63.97 fL
same,MONOCYTE,[3],0.67%
same,NEUTROPHIL,[3],7%
same,NUCLEATED RED BLOOD CELLS,[3],0 /100WBC
same,PLATELET COUNT,[3],972.33 x10E3/uL
same,ALANINE AMINOTRANSFERASE,[3],52.33 u/L
same,ALBUMIN,[3],4 G/DL
same,ALKALINE PHOSPHATASE,[3],326.67 u/L
same,ASPARTATE AMINOTRANSFERASE,[3],74.67 u/L
same,BLOOD UREA NITROGEN,[3],12 mg/dL
same,CARBON DIOXIDE,[3],35 mmol/L
same,CHLORIDE,[3],97.5 MEQ/L
same,CHOLESTEROL,[3],87.67 mg/dL
same,CREATINE PHOSPHOKINASE,[3],212 u/L
same,CREATININE,[3],0.15 mg/dL
same,GLUCOSE,[3],146.33 mg/dL
same,LACTATE DEHYDROGENASE,[3],153.33 u/L
same,LIPASE,[3],12 u/L
same,PHOSPHORUS,[3],11.73 mg/dL
same,POTASSIUM,[3],6.16 MEQ/L
same,SODIUM,[3],143.95 MEQ/L
same,TOTAL BILIRUBIN,[3],0.2 mg/dL
same,TOTAL PROTEIN,[3],5.83 G/DL
same,URIC ACID,[3],0.83 mg/dL
same,ABSOLUTE BASOPHIL,[4],0 CELLS/uL
same,ABSOLUTE EOSINOPHIL,[4],0 CELLS/uL
same,ABSOLUTE LYMPHOCYTE,[4],5785.67 CELLS/uL
same,ABSOLUTE MONOCYTE,[4],18.33 CELLS/uL
same,ABSOLUTE SEGMENTED NEUTROPHIL,[4],262.67 CELLS/uL
same,BASOPHIL,[4],0%
same,EOSINOPHIL,[4],0%
same,ERYTHROCYTE COUNT,[4],5.55 x10E6/uL
same,HEMATOCRIT,[4],34.67%
same,HEMOGLOBIN,[4],13.1 G/DL
same,LEUKOCYTE COUNT,[4],6.07 x10E3/uL
same,LYMPHOCYTE,[4],94.33%
same,MEAN CORPUSCULAR HEMOGLOBIN,[4],23.57 pg
same,MEAN CORPUSCULAR HEMOGLOBIN CONCENTRATION,[4],37.77 G/DL
same,MEAN CORPUSCULAR VOLUME,[4],62.47 fL
same,MONOCYTE,[4],0.33%
same,NEUTROPHIL,[4],5.33%
same,NUCLEATED RED BLOOD CELLS,[4],0 /100WBC
same,PLATELET COUNT,[4],1109.67 x10E3/uL
same,ALANINE AMINOTRANSFERASE,[4],55.33 u/L
same,ALBUMIN,[4],4.13 G/DL
same,ALKALINE PHOSPHATASE,[4],380.67 u/L
same,ASPARTATE AMINOTRANSFERASE,[4],85 u/L
same,BLOOD UREA NITROGEN,[4],17.67 mg/dL
same,CARBON DIOXIDE,[4],32.67 mmol/L
same,CHLORIDE,[4],100 MEQ/L
same,CHOLESTEROL,[4],89.67 mg/dL
same,CREATINE PHOSPHOKINASE,[4],357 u/L
